Assay results published in patent US20130108573A1, “Bile Acid Recycling Inhibitors for Treatment of Hypercholemia and Cholestatic Liver Disease” (Lumena Pharmaceuticals, Inc., priority 2011, published 2013).
Marks after values point to notes of the source that are not given here.

What was measured:
Dog Serum Bile Acids [1] = experiment: Duration of action of LUM001 on dog serum bile acids, Method 1: two meals for extended SBA elevation; format: in vivo, beagle dogs; conditions: for Serum Bile Acid, Mean: dogs n = 6, full meal at 0 hr, dosed at 1 hr, one-half meal at 4 hr
Experimental: (§1) LUM001 was dissolved in water at concentrations that required the administration of 0.2 ml/kg of solution. Solutions were placed into gelatin capsules, Torpac Inc., size 13 Batch 594, East Hanover N.J., and administered orally.
(§2) Male beagle dogs were obtained from Covance Research Products, Cumberland Va. or Marshall Farms USA, Inc., North Rose N.Y. A total of 20 dogs, 1 to 5 years old, 6.8 to 15.6 kg body weight, were used in these experiments. The dogs were conditioned to a 12 hour light/dark cycle and maintained on a feeding restriction of 1 hour per day access to food (Richman Standard Certified Canine Diet #5007, PMI Nutrition, Inc., St Louis Mo.) from 7 to 8 AM. They were trained to eat a special meal promptly within 20 minutes when presented (1 can. 397 g, Evanger's 100% Beef for Dogs, Evanger's Dog and Cat Food Co., Inc., Wheeling Ill., mixed with 50 g of sharp cheddar cheese.).
(§3) SBA was measured by an enzymatic assay. SBA values are expressed as μg of total bile acids/ml of serum.
(§4) In dogs a single experimental meal produces a postprandial rise in SBA that is elevated to a peak at 1 hour after feeding and constant for an additional 3 hours. Previous experiments (2) indicate that LUM001 remains active for more than 4.5 hours. To measure the duration of action of an ASBT inhibitor using postprandial SBA levels requires that in the control situation the SBA levels remain elevated and constant for the entire period of compound action, or that the compound be administered long before the postprandial rise occurs, and remain active in the empty digestive system for long periods before feeding. Accordingly, two alternative methods were used to provide a window of constant SBA elevation that could be used to measure the duration of action of ASBT inhibitors.
LUM001 was administered at 0.05 and 0.2 mg/kg, p.o. to 6 dogs 1 hr after feeding them a meal. At 4 hours after the meal was offered, a second meal of ½ the size of the first meal was offered. It too was consumed as promptly and thoroughly as the first meal, and provided an extended, constant SBA plateau. Blood samples for SBA measurement were taken at 0, 1, 1.5, 2, 4, 4.5, 5, 5.5, 6, 6.5, 7, 7.5 and 8 hours from the time of offering the first meal. Mean SBA levels were compared to the mean SBA level at 1 hour, each dog serving as its own control.

Dog Serum Bile Acids [2] = experiment: Duration of action of LUM001 on dog serum bile acids, Method 2: one meal, extended interval between dosing and feeding; format: in vivo, beagle dogs; conditions: for Serum Bile Acid, Mean: dogs n = 6, 0.2 mg/kg p.o., dosing time 0 hr, feeding time 2 hr
Experimental: as §1, §2, §3, §4
Alternatively, 6 dogs were dosed with water or LUM001, at 0.05 mg/kg, p.o. at 1.5 hours prior to being fed, or 0.05, or 0.2 mg/kg, at 2 hours prior to feeding. This moved the elevated SBA plateau out in time from the dose point. Blood samples for SBA measurement were taken immediately before dosing (0 or 0.5 hr), at feeding (2 hr), 2.5, 3, 4 and 5 hours after feeding. This allowed detection of activity out to 5.5 and 6 hours after dosing without feeding the dogs a second time. Mean SBA levels were compared to the corresponding mean SBA levels in water treated controls.

serum bile acids = experiment: Human study of LUM001 lowering fasting and post-prandial peak serum bile acids in children and adolescents; format: in vivo; conditions: for Fasting serum bile acid / Morning Post-prandial peak: after eight days of dosing
Experimental: LUM001 has been administered to forty patients under the age of 18 years old. […] The drug was administered once-a-day (QD) in the morning for fourteen days. […] These doses are similar to those using to treat patients with cholestatic diseases.
The efficacy of LUM001 was determined by measuring total serum bile acids after eight days of dosing in children and adolescents under the age of eighteen. Thirty minutes before the next drug administration, at approximately 8 am in the morning, serum bile acid levels were measured. The child had refrained from food for 12 hours prior to this sample thus providing a fasted level of serum bile acid. After breakfast, serum bile acids were measured for up to the next 4 hours (8 am to noon) and the peak serum bile acid concentration noted.

Dog Serum Bile Acids [3] = conditions: dogs; previous experiments (2); cited from earlier work
Dog Serum Bile Acids [4] = experiment: Duration of action of LUM001 on dog serum bile acids, Method 2: one meal, extended interval between dosing and feeding; format: in vivo, beagle dogs; conditions: feeding time 2 hr
[5] = patient 401, drug dose 2.5 mg QD

Structure (SMILES): CCCCC1(CCCC)CS(=O)(=O)c2ccc(N(C)C)cc2[C@@H](c2ccc(OCc3ccc(C[N+]45CCN(CC4)CC5)cc3)cc2)[C@H]1O [LUM001]
- Serum Bile Acid, Mean (Dog Serum Bile Acids [1]; 0.05 mg/kg p.o., time 0 hr): 1.4 µg/mL
- Serum Bile Acid, Mean (Dog Serum Bile Acids [1]; 0.05 mg/kg p.o., time 1 hr): 9.2 µg/mL
- Serum Bile Acid, Mean (Dog Serum Bile Acids [1]; 0.05 mg/kg p.o., time 1.5 hr): 9.6 µg/mL
- Serum Bile Acid, Mean (Dog Serum Bile Acids [1]; 0.05 mg/kg p.o., time 2 hr): 6.7 µg/mL
- Serum Bile Acid, Mean (Dog Serum Bile Acids [1]; 0.05 mg/kg p.o., time 4 hr): 5.1* μg/ml
- Serum Bile Acid, Mean (Dog Serum Bile Acids [1]; 0.05 mg/kg p.o., time 4.5 hr): 6.4 µg/mL
- Serum Bile Acid, Mean (Dog Serum Bile Acids [1]; 0.05 mg/kg p.o., time 5 hr): 7.0 µg/mL
- Serum Bile Acid, Mean (Dog Serum Bile Acids [1]; 0.05 mg/kg p.o., time 6 hr): 7.0 µg/mL
- Serum Bile Acid, Mean (Dog Serum Bile Acids [1]; 0.05 mg/kg p.o., time 7 hr): 7.4 µg/mL
- Serum Bile Acid, Mean (Dog Serum Bile Acids [1]; 0.05 mg/kg p.o., time 8 hr): 6.5 µg/mL
- Serum Bile Acid, Mean (Dog Serum Bile Acids [1]; 0.2 mg/kg p.o., time 0 hr): 1.3 µg/mL
- Serum Bile Acid, Mean (Dog Serum Bile Acids [1]; 0.2 mg/kg p.o., time 1 hr): 11.1 µg/mL
- Serum Bile Acid, Mean (Dog Serum Bile Acids [1]; 0.2 mg/kg p.o., time 1.5 hr): 9.1 µg/mL
- Serum Bile Acid, Mean (Dog Serum Bile Acids [1]; 0.2 mg/kg p.o., time 2 hr): 3.8* μg/ml
- Serum Bile Acid, Mean (Dog Serum Bile Acids [1]; 0.2 mg/kg p.o., time 4 hr): 2.5* μg/ml
- Serum Bile Acid, Mean (Dog Serum Bile Acids [1]; 0.2 mg/kg p.o., time 4.5 hr): 3.3* μg/ml
- Serum Bile Acid, Mean (Dog Serum Bile Acids [1]; 0.2 mg/kg p.o., time 5 hr): 3.1* μg/ml
- Serum Bile Acid, Mean (Dog Serum Bile Acids [1]; 0.2 mg/kg p.o., time 6 hr): 3.6* μg/ml
- Serum Bile Acid, Mean (Dog Serum Bile Acids [1]; 0.2 mg/kg p.o., time 7 hr): 3.9* μg/ml
- Serum Bile Acid, Mean (Dog Serum Bile Acids [1]; 0.2 mg/kg p.o., time 8 hr): 5.8* μg/ml
- Time after dosing beyond which the significant SBA decrease was not sustained (Dog Serum Bile Acids [1]; dogs, 0.05 mg/kg orally 1 hour after feeding): ≤ 3 h
- Time serum bile acid levels remained significantly lowered (Dog Serum Bile Acids [1]; dogs, 0.2 mg/kg orally 1 hour after feeding): at least 6 hours
- Serum Bile Acid, Mean (Dog Serum Bile Acids [2]; time 0 hr): 1.3 µg/mL
- Serum Bile Acid, Mean (Dog Serum Bile Acids [2]; time 2 hr): 1.7 µg/mL
- Serum Bile Acid, Mean (Dog Serum Bile Acids [2]; time 5 hr): 7.9* μg/ml
- Time after feeding for which a significant SBA effect was sustained (Dog Serum Bile Acids [2]; dogs, 0.2 mg/kg administered 2 hours prior to feeding): 2 to 3 h
- Decrease of average fasting serum bile acid level vs placebo patients (serum bile acids; LUM001 1-5 mg QD): 24%
- Decrease of average post-prandial peak serum bile acid level vs placebo patients (serum bile acids; LUM001 1-5 mg QD): 23%
- Average fasting serum bile acid level of LUM001 treated patients (serum bile acids; LUM001 1-5 mg QD, placebo patients 8.6 μmol/L): 6.5 µmol/L
- Average post-prandial peak serum bile acid level of LUM001 treated patients (serum bile acids; LUM001 1-5 mg QD, placebo patients 11.9 μmol/L): 9.2 µmol/L
- Fasting serum bile acid (serum bile acids; patient 304, drug dose 1 mg QD): 5.6 µmol/L
- Morning Post-prandial peak (serum bile acids; patient 304, drug dose 1 mg QD): 8.4 µmol/L
- Fasting serum bile acid (serum bile acids; patient 308, drug dose 1 mg QD): 6.8 µmol/L
- Morning Post-prandial peak (serum bile acids; patient 308, drug dose 1 mg QD): 9.3 µmol/L
- Fasting serum bile acid (serum bile acids; patient 309, drug dose 1 mg QD): 6.9 µmol/L
- Morning Post-prandial peak (serum bile acids; patient 309, drug dose 1 mg QD): 10.0 µmol/L
- Fasting serum bile acid (serum bile acids; [5]): 6.0 µmol/L
- Morning Post-prandial peak (serum bile acids; [5]): 6.8 µmol/L
- Fasting serum bile acid (serum bile acids; patient 510, drug dose 5 mg QD): 7.4 µmol/L
- Morning Post-prandial peak (serum bile acids; patient 510, drug dose 5 mg QD): 11.3 µmol/L
- Time LUM001 remains active (Dog Serum Bile Acids [3]): more than 4.5 hours
- Serum Bile Acid, Mean (Dog Serum Bile Acids [4]; dogs n = 6, 0.2 mg/kg p.o., dosing time 0 hr, time 3 hr): 4.1* μg/ml
- Serum Bile Acid, Mean (Dog Serum Bile Acids [4]; dogs n = 6, 0.2 mg/kg p.o., dosing time 0 hr, time 4 hr): 6.5* μg/ml
- Serum Bile Acid, Mean (Dog Serum Bile Acids [4]; dogs n = 9, 0.05 mg/kg p.o., dosing time 0 hr, time 0 hr): 1.7 µg/mL
- Serum Bile Acid, Mean (Dog Serum Bile Acids [4]; dogs n = 9, 0.05 mg/kg p.o., dosing time 0 hr, time 2 hr): 2.0 µg/mL
- Serum Bile Acid, Mean (Dog Serum Bile Acids [4]; dogs n = 9, 0.05 mg/kg p.o., dosing time 0 hr, time 3 hr): 9.0* μg/ml
- Serum Bile Acid, Mean (Dog Serum Bile Acids [4]; dogs n = 9, 0.05 mg/kg p.o., dosing time 0 hr, time 4 hr): 10.8 µg/mL
- Serum Bile Acid, Mean (Dog Serum Bile Acids [4]; dogs n = 9, 0.05 mg/kg p.o., dosing time 0 hr, time 5 hr): 10.6 µg/mL
- Serum Bile Acid, Mean (Dog Serum Bile Acids [4]; dogs n = 9, 0.05 mg/kg p.o., dosing time 0.5 hr, time 0.5 hr): 1.8 µg/mL
- Serum Bile Acid, Mean (Dog Serum Bile Acids [4]; dogs n = 9, 0.05 mg/kg p.o., dosing time 0.5 hr, time 2 hr): 1.7 µg/mL
- Serum Bile Acid, Mean (Dog Serum Bile Acids [4]; dogs n = 9, 0.05 mg/kg p.o., dosing time 0.5 hr, time 2.5 hr): 2.5 µg/mL
- Serum Bile Acid, Mean (Dog Serum Bile Acids [4]; dogs n = 9, 0.05 mg/kg p.o., dosing time 0.5 hr, time 3 hr): 9.7 µg/mL
- Serum Bile Acid, Mean (Dog Serum Bile Acids [4]; dogs n = 9, 0.05 mg/kg p.o., dosing time 0.5 hr, time 4 hr): 12.4 µg/mL
- Serum Bile Acid, Mean (Dog Serum Bile Acids [4]; dogs n = 9, 0.05 mg/kg p.o., dosing time 0.5 hr, time 5 hr): 11.6 µg/mL
